Assay results: publication PMC9170034 (Proceedings of the National Academy of Sciences of the …, 2022)
Values joined by “and” are separate entries in the source; they are usually repeats but may differ in a detail not shown here. Identical values can stand only once.

How the values were obtained:
[1] = molecular target: T1, AmpC from Escherichia coli (AmpCEC) (Escherichia coli, UniProt P00811); assay: IC50/pIC50 determination with fluorescent reporter substrate FC-5 after pre-incubation; assay type: biochemical
T1 construct: made in house
Description: (§1) Kinetic analyses were performed (at least in triplicate) using either BMG LABTECH PHERAstar or CLARIOstar plate readers. Unless stated otherwise, reactions were in 50 mM phosphate buffer, pH 7.5, containing 0.01% (vol/vol) aqueous Triton X-100, and, in the case of OXA-10, 10 mM sodium bicarbonate. Assays were performed in competition with either the fluorescent reporter substrate FC-5 ([35]), using black-walled microplates (Greiner Bio-One μCLEAR, PS, F-bottom, black), and measuring fluorescence intensity (ʎex = 380 nm and ʎem = 460 nm), or with nitrocefin (NCF), using ultraviolet transparent plates (Greiner Bio-One UV-Star, COC, F-bottom, clear) and measuring absorbance (ʎAbs = 486 nm, using path-length correction). Nonlinear regression analysis was performed with Prism 5 (GraphPad Software).
IC50s were determined as reported ([35]). TEM-116 (1 nM), AmpCEC (500 pM), or OXA-10 (250 pM) were incubated with varied inhibitor concentrations at room temperature (r.t.) for the indicated time then assayed using 5 µM FC-5. The apparent inhibitory constant Kiapp and the second-order rate constant kinact/K (or k2/K) were determined using reported methods ([60]). SBLs were reacted with the reporter substrate in the presence of varied inhibitor concentrations. Reactions were initiated by SBL addition and immediately monitored for 60 to 120 s (until they plateaued). For TEM-116 (1 nM) assays were carried out in competition with NCF (50 µM); for AmpCEC (100 nM) and OXA-10 (50 nM) FC-5 (5 µM) was used. […] P=Vst+(V0−VS)(1−e^−kobst)/kobs+P0.

[2] = molecular target: T2, OXA-10 (Pseudomonas aeruginosa, UniProt P14489); assay: as above; assay type: biochemical
T2 construct: His tag (N); made in house
Description: Kinetic analyses were performed (at least in triplicate) using either BMG LABTECH PHERAstar or CLARIOstar plate readers. Unless stated otherwise, reactions were in 50 mM phosphate buffer, pH 7.5, containing 0.01% (vol/vol) aqueous Triton X-100, and, in the case of OXA-10, 10 mM sodium bicarbonate. […] Nonlinear regression analysis was performed with Prism 5 (GraphPad Software).
IC50s were determined as reported ([35]). […] The apparent inhibitory constant Kiapp and the second-order rate constant kinact/K (or k2/K) were determined using reported methods ([60]). SBLs were reacted with the reporter substrate in the presence of varied inhibitor concentrations. Reactions were initiated by SBL addition and immediately monitored for 60 to 120 s (until they plateaued). […] P=Vst+(V0−VS)(1−e^−kobst)/kobs+P0.

[3] = molecular target: T3, AmpCEC (Escherichia coli, UniProt P00811); assay: biochemical
T3 construct: made in house
Description: as §1
(§2) IC50s were determined as reported ([35]). TEM-116 (1 nM), AmpCEC (500 pM), or OXA-10 (250 pM) were incubated with varied inhibitor concentrations at room temperature (r.t.) for the indicated time then assayed using 5 µM FC-5. The apparent inhibitory constant Kiapp and the second-order rate constant kinact/K (or k2/K) were determined using reported methods ([60]). SBLs were reacted with the reporter substrate in the presence of varied inhibitor concentrations. Reactions were initiated by SBL addition and immediately monitored for 60 to 120 s (until they plateaued). […]

[4] = molecular target: T2, OXA-10; assay: Kiapp and kinact/K determination in competition with FC-5; assay type: biochemical
Description: as §1, §2

[5] = molecular target: T2, OXA-10; assay: SPE-MS study of prolonged reaction of SBL with penam sulfones; details: 500 equiv.

T2 sequence (P14489 20-266): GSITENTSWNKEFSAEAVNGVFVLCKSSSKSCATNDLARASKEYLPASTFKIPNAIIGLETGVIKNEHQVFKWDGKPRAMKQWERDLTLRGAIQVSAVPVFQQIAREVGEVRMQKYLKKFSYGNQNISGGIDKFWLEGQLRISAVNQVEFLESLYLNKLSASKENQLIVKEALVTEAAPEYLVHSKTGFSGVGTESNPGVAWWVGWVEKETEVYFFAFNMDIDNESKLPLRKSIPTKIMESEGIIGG
T1 sequence (P00811 20-377): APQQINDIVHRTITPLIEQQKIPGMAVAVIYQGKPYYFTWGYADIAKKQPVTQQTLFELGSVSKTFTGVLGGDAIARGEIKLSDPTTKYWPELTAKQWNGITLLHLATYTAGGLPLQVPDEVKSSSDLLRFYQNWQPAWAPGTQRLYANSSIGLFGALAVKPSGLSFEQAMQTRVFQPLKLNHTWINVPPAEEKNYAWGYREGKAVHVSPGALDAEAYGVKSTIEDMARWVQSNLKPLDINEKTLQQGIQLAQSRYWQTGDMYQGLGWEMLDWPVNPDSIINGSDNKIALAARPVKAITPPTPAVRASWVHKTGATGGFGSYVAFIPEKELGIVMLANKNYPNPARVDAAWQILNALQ
T3 sequence (P00811 20-377): as above

CC1(C)[C@H](C(=O)O)N2C(=O)C[C@H]2S1(=O)=O [sulbactam]
IC50 ([1]; IC50, AmpC E. coli, 10 min pre-incubation, r.t., pH 7.5, FC-5 (5 μM)): 89 µM and 89.2 µM
IC50 ([1]; pIC50, AmpCEC, pH 7.0, pH 7.0, 0 min pre-incubation, Table S2): 447 µM
IC50 ([1]; pIC50, AmpCEC, pH 7.0, pH 7.0, 10 min pre-incubation, Table S2): 162 µM
IC50 ([1]; pIC50, AmpCEC, pH 7.0, pH 7.0, 30 min pre-incubation, Table S2): 69.2 µM
IC50 ([1]; pIC50, AmpCEC, pH 7.0, pH 7.0, 60 min pre-incubation, Table S2): 45.7 µM
IC50 ([1]; pIC50, AmpCEC, pH 7.0, pH 7.0, 360 min pre-incubation, Table S2): 11.5 µM
IC50 ([1]; pIC50, AmpCEC, pH 7.5, pH 7.5, 0 min pre-incubation, Table S2): 275 µM
IC50 ([1]; pIC50, AmpCEC, pH 7.5, pH 7.5, 30 min pre-incubation, Table S2): 36.3 µM
IC50 ([1]; pIC50, AmpCEC, pH 7.5, pH 7.5, 60 min pre-incubation, Table S2): 20 µM
IC50 ([1]; pIC50, AmpCEC, pH 7.5, pH 7.5, 360 min pre-incubation, Table S2): 4.17 µM
IC50 ([1]; pIC50, AmpCEC, pH 8.0, pH 8.0, 0 min pre-incubation, Table S2): 97.7 µM
IC50 ([1]; pIC50, AmpCEC, pH 8.0, pH 8.0, 10 min pre-incubation, Table S2): 37.2 µM
IC50 ([1]; pIC50, AmpCEC, pH 8.0, pH 8.0, 60 min pre-incubation, Table S2): 9.77 µM
IC50 ([1]; pIC50, AmpCEC, pH 8.0, pH 8.0, 360 min pre-incubation, Table S2): 1.7 µM
IC50 ([1]; pIC50 at pH 7.5, AmpCEC, 0 min pre-incubation, Table S1): 275 µM
IC50 ([1]; pIC50 at pH 7.5, AmpCEC, 30 min pre-incubation, Table S1): 36.3 µM
IC50 ([1]; pIC50 at pH 7.5, AmpCEC, 60 min pre-incubation, Table S1): 20 µM
IC50 ([1]; pIC50 at pH 7.5, AmpCEC, 360 min pre-incubation, Table S1): 4.17 µM
IC50 ([2]; IC50, OXA-10, 10 min pre-incubation, r.t., pH 7.5, FC-5 (5 μM), 100 mM NaHCO3 added): 143 µM and 142 µM
IC50 ([2]; pIC50 at pH 7.5, OXA-10, with 100 mM added NaHCO3, 0 min pre-incubation, Table S1): 218.8 ± 0.598 µM
IC50 ([2]; pIC50 at pH 7.5, OXA-10, with 100 mM added NaHCO3, 30 min pre-incubation, Table S1): 263 µM
IC50 ([2]; pIC50 at pH 7.5, OXA-10, with 100 mM added NaHCO3, 60 min pre-incubation, Table S1): 112 µM
IC50 ([2]; pIC50 at pH 7.5, OXA-10, with 100 mM added NaHCO3, 360 min pre-incubation, Table S1): 204 µM
IC50 ([2]; pIC50 at pH 7.5, OXA-10, without added NaHCO3, 0 min pre-incubation, Table S1): 204 µM
IC50 ([2]; pIC50 at pH 7.5, OXA-10, without added NaHCO3, 10 min pre-incubation, Table S1): 87.1 µM
IC50 ([2]; pIC50 at pH 7.5, OXA-10, without added NaHCO3, 30 min pre-incubation, Table S1): 89.1 µM
IC50 ([2]; pIC50 at pH 7.5, OXA-10, without added NaHCO3, 60 min pre-incubation, Table S1): 75.9 µM
IC50 ([2]; pIC50 at pH 7.5, OXA-10, without added NaHCO3, 360 min pre-incubation, Table S1): 50.1 µM
Ki [3]: 1580 ± 189 µM
Ki [4]: 4920 ± 873 µM
−18-Da modification, OXA-10 [5]: Small amounts
